Data taken from patent US4829073A, “Thiadiazole oxides for treating gastrointestinal motility disorders” (Bristol-Myers Company, priority 1988, dated 1989).
Where two headings read alike, the source gives them in different places.

Legend:
[1] = tested on: gastric emptying of a solid meal; assay: Gastric emptying of solid meal in conscious dogs; type: in vivo, beagle dogs; conditions: for gastric half emptying time (T1/2) of a solid meal: control 208 ± 34, *P < .05; for half emptying time (t1/2) of a solid meal, in words: orally, conscious dogs
Procedure: Under aseptic conditions 10 beagle dogs were implanted with T-shaped titanium duodenal cannulas. The dogs were allowed to recover from surgery for 3 weeks. Each dog before the test was fasted for 16-18 hours. Water was provided ad lib. On the day of the test, the duodenal cannula was opened and the stomach contents were drained. The cannula was closed again and the dog was dosed orally with either placebo (10cc saline) or with test compound in 10cc saline. […] The dry weight of this food is 36 grams. After the dog had ingested the food the cannula was opened and an insert was placed in the cannula which drained the chyme through the cannula into a beaker. This collection was continued for 5 hours and samples were collected every thirty minutes. The chyme was filtered and dried in an oven. The dry weight collected every thirty minutes was deducted from the dry weight of the food left in the stomach. A time response curve of gastric emptying was developed and t1/2, the time taken to empty 50% of the solid meal from the stomach was determined. The t1/2 for the test compound at various doses was compared with controls. Significance of differences was determined using paired t-test.

[2] = tested on: circular smooth muscle contractile activity of the antral and duodenal portion of the stomach; assay: Gastric contractile activity in the anesthetized dog; type: in vivo, Male Beagle Dogs; conditions: I.V. cumulative dosing 0.01 to 10 mg/kg
Procedure: The effect of test compounds on circular smooth muscle contractile activity of the antral and duodenal portion of the stomach are measured by strain gauge arches sewn on the serosal surface similar to the procedure described by […] et al., Digestion, 28, 205-209 (1983). Male Beagle Dogs, weighing 8 to 14 kg, are fasted overnight and then anesthetized with pentothal (thiopental sodium), 20 mg/kg and maintained with I.V. alpha-chloralose (100 mg/ml in PEG 400, diluted 1:1 with saline immediately before use) as needed, usually 100 mg/dose. The trachea is intubated for respiratory assistance if needed, and the right femoral artery and vein are cannulated to monitor blood pressure and administer I.V. solutions, respectively. The stomach and intestine are exposed by a midline incision, and a Walton-Brodie adjustable strain gauge arch is sewn on the ventral surface of the antrum of the stomach, 3-5 cm proximal to the pylorus. The arch is oriented to respond to contractions of the circular muscle, and the initial resting tension is set at 25 grams by adjusting the length of the arch. The preparation is allowed to stabilize for 1 to 2 hours. Fifteen minutes after observation of migrating motor complex phase III activity, test compounds are given every 10 minutes in a cumulative dosing manner beginning at 0.01 mg/kg to 10 mg/kg. The test compounds are dissolved in saline at concentrations that are dependent on the weight of each animal so that a constant volume will be administered at each dose level. […] The stomach contractions, the cumulative grams of tension developed by the stomach contractions, EKG, heart rate, blood pressure, and any additional contractile and/or electrical activities are recorded on a Beckman Dynograph. The results are expressed as the increased tension developed by the smooth muscles in response to the administration of test compound.

[3] = tested on: guinea pig ileum (longitudinal muscle); assay: Electrically stimulated isolated guinea pig ileum; type: cell-based; conditions: Cavia porcellus
Procedure: (§1) Two classical pharmacological preparations, the field stimulated guinea pig ileum and field stimulated rat fundic strip, are utilized to assess gastroprokinetic activity in vitro.
A modification of the procedure described by W. D. M. Paton, J. Physiol. (Lond), 127, 40-41P (1955). Segments of the preterminal ileal tissue, 3-4 cm in length, are mounted in a 20 ml tissue bath. The tissues are perfused at 37° C. with a modified Krebs solution and continuously gassed with 95%O2 -5% CO2. The solution is prepared with millipore water and consists of (mM/L): NaCl 116, KCl 5, CaCl2 2.5, KH2 PO4 1.2, MgSO4.7H2 O 0.5, NaHCO3 25 and Glucose 11.1.
A force displacement transducer is attached to each tissue and the resting tension adjusted to 1.0 g. The tissues are allowed to equilibrate for one hour, with washes every twenty minutes, after the stimulator is engaged or until twitch height remains stable.
Dose response curves for test compounds are established by adding single doses of the material in increasing increments until a maximal effect is achieved. Compounds are administered at volumes ranging from 0.2 to 0.6 ml to give final bath concentrations of 0.1 μM thru 100 μM. The test materials remain in contact with the tissue for 2 to 3 minutes, until the peak effect is achieved, before thorough washing with Kreb's solution. […]

rat gastric emptying = assay: In vivo small animal gastroprokinetic activity: rat gastric emptying; set-up: species or system male Sprague-Dawley rats; conditions: normal rats; for ED50: Rattus norvegicus
Procedure: IN VIVO SMALL ANIMAL GASTROPROKINETIC ACTIVITY The method used to assess rat gastric emptying is a modification of the procedures described by D. A. Droppleman et al., Journal of Pharmacological Methods, 4, 227-230 (1980). Test compounds (0.3 to 30 mg/kg in 1 ml/kg vehicle) are administered either orally or subcutaneously to male, Sprague-Dawley rats (160-180 g) that were fasted overnight. The test animals receive 2.5 ml of a freshly made milk plus ground rat chow meal by oral intubation, thirty or fifteen minutes following oral or subcutaneous administration, respectively. Rats are sacrificed 25 minutes following the test meal, and the stomachs are quickly excised. Each stomach containing the remaining meal is weighed intact on an analytical balance. To empty the contents before reweighing, each stomach is cut open, rinsed thoroughly and then blotted dry. The difference in weights indicates the amount of meal remaining in the stomach. The amount of meal retained is calculated as a percent of the total meal weight administered.

[4] = tested on: opossum lower esophageal sphincter (LES); assay: Lower esophageal sphincter pressure in the anesthetized opossum; type: in vivo
Text: This procedure measures the effect of the test compounds on the opossum lower esophageal sphincter (LES) which closely resembles the human sphincter. In order to test the effects of compounds on LES resting pressure, a small tube perfused with water at a constant flow rate is passed through the anesthetized opossum esophagus and water pressure in the tube is monitored. The method is similar to that described by R. Goyal et al., Gastroenterology, 71, 62-67 (1976). An increase in esophageal tone is measured as an increase in pressure and reported as a percent increase of the control determination. The compound of Example 1 was given as a single bolus dose of 10 mg/kg I.V. in four opossums.

benzodiazepine receptors = assay: Radioligand binding to membrane receptors: benzodiazepine
Procedure: (§2) Radioligand binding studies to membrane receptors were carried out to assess the potential for interaction with other receptors. […] To assess any possible cardiovascular effects a bolus injection of the test compound at various doses was administered to anesthetized dogs. Thus, the compound of Example 1, at 5 mg/kg administered I.V., had no effect on heart rate or blood pressure in three anesthetized dogs.

[5] = tested on: calcium channel receptors; assay: Radioligand binding to membrane receptors: calcium channel
Procedure: as §2

GABA receptors = assay: Radioligand binding to membrane receptors: GABA
Procedure: as §2

serotonin receptors = assay: Radioligand binding to membrane receptors: serotonin
Procedure: as §2

rat fundic strip = assay: Electrically stimulated isolated rat stomach fundus; type: cell-based
Procedure: as §1
The rat fundic strip is prepared according to the method described by J. R. Vane, Brit. J. Pharmacol., 12, 344-349 (1957). For this preparation, strips are made by removing the fundal end of the stomach and slitting it open to form a sheet. Small cuts are made transversing the longitudinal muscle to produce two strips 3-4 cm in length. The tissues are mounted in a 20 ml organ bath containing Kreb's solution at 37° C. and are oxygenated with 95% O2 -5% CO2. Resting tension is adjusted to 1.0 g. Contractions are recorded by means of a force displacement transducer and a Beckman Dynograph Type R.
Once a consistent response to electrical field stimulation is established, varying amounts of a test compound are added to the bath. All compounds are administered three minutes prior to electrical stimulation at volumes of 0.2 ml to 0.6 ml for final bath concentrations of 0.1 μM thru 100 μM. Each tissue is thoroughly washed between each dose. A dose response curve is achieved by measuring the effect of increasing dose levels of test materials on the tissue contraction due to electrical field stimulation.

dopamine receptors = assay: Radioligand binding to membrane receptors: dopamine
Procedure: as §2

[6] = tested on: heart rate or blood pressure; assay: Cardiovascular effects in anesthetized dogs; type: in vivo; conditions: 5 mg/kg I.V. bolus; three anesthetized dogs
Procedure: as §2

[7] = 1.0 mg/kg P.O. (N = 3), 60 minutes before meal
[8] = 3.0 mg/kg P.O. (N = 3), 60 minutes before meal

NC1=NS(=O)(=O)N=C1NCCSCc1ccc(CN2CCCCC2)o1 [Example 2]
gastric half emptying time (T1/2) of a solid meal [1, 7]: 1.83 ± 0.3 h | half emptying time (t1/2) of a solid meal, in words ([1]; 1.0 mg/kg): significantly decreased

CNC(=C[N+](=O)[O-])NCCSCc1ccc(CN(C)C)o1 [Ranitidine, ranitidine, reference compound]
gastric half emptying time (T1/2) of a solid meal [1, 7]: 3.43 ± 0.517 h | gastric half emptying time (T1/2) of a solid meal [1, 8]: 3.43 ± 0.4 h | half emptying time (t1/2) of a solid meal, in words ([1]; at the tested doses (1.0 and 3.0 mg/kg)): ineffective

Nc1n[s+]([O-])nc1NCCSCc1ccc(CN2CCCCC2)o1 (stereo not shown) [Example 1, 3-Amino-4-{2-[(5-piperidinomethyl-2-furyl)methylthio]ethylamino}-1,2,5-thiadiazole 1-oxide]
ED50 ([2]; Canis lupus familiaris, iv, 50% of approx. 20 grams mean maximal response, read-out: ED50 value (dose necessary to achieve 10 grams of tension)): 0.24 mg/kg | duodenal tension [2]: increased the duodenal tension dose dependently | maximal response of developed tension [2]: 24±5 grams | EC50 ([3]; 95% confidence limits of 84-1629, bath concentrations 0.1 μM thru 100 μM, 37° C., read-out: computer projected EC50 value): 224 µM | Emax ([3]; read-out: increase in contractile amplitude, maximal response over control): 37 ± 4.8% | ED50 (rat gastric emptying; sc, subcutaneous, 15 min before test meal, read-out: subcutaneous ED50 value, stomach emptying): 0.4 mg/kg | ED50 (rat gastric emptying; oral, 30 min before test meal, read-out: oral ED50 value, stomach emptying): 2.9 mg/kg | maximum response over control values, stomach emptying (rat gastric emptying; oral): 95±19% | maximum response over control values, stomach emptying (rat gastric emptying; subcutaneous): 105±6% | gastric half emptying time (T1/2) of a solid meal ([1]; 0.1 mg/kg P.O. (N = 3), 60 minutes before meal): 3.4 ± 0.533 h | gastric half emptying time (T1/2) of a solid meal [1, 7]: 1.6 ± 0.233 h | gastric half emptying time (T1/2) of a solid meal [1, 8]: 1.63 ± 0.267 h | half emptying time (t1/2) of a solid meal, in words ([1]; 1.0 mg/kg): significantly decreased | increase in LES pressure ([4]; 10 mg/kg I.V. single bolus, four opossums, percent increase of the control determination): 33% | inhibition of LES pressure following the initial increase ([4]; I.V., higher doses than 10 mg/kg): no inhibition of LES pressure following the initial increase was observed | binding to benzodiazepine receptors (benzodiazepine receptors): does not bind | binding to calcium channel receptors [5]: does not bind | binding to GABA receptors (GABA receptors): does not bind | binding to serotonin receptors (serotonin receptors): does not bind | EC50 (rat fundic strip; bath concentrations 0.1 μM thru 100 μM, 37° C., 95% confidence limits in parentheses): 8.2 µM | Emax (rat fundic strip; read-out: increase in contractile force, maximal response over control): 82 ± 10% | binding to dopamine receptors (dopamine receptors): does not bind | effect on blood pressure [6]: no effect | effect on heart rate [6]: no effect

CCN(CC)CCNC(=O)c1cc(Cl)c(N)cc1OC [Metoclopramide, metoclopramide, reference compound]
gastric half emptying time (T1/2) of a solid meal ([1]; 0.1 mg/kg P.O. (N = 3), 30 min before meal): 2 ± 0.35 h | gastric half emptying time (T1/2) of a solid meal ([1]; 1.0 mg/kg P.O. (N = 3), 30 min before meal): 3.3 ± 0.233 h
